Values of other authors as cited in patent publication US20100086572A1, “RATIONAL PPI DOSAGE FORMS” (priority 2005, published 2010).
Like-named read-outs stand apart in the source and are kept apart here.

Experiments:
[1] = 0.5 hours
[2] = tested on: experimentally induced colitis; details: in vivo

drug degrading in aqueous solution ([1]; pH 5, 37° C.): About 49%
drug degrading in aqueous solution ([1]; pH 6, 37° C.): ~10%
drug degrading in aqueous solution ([1]; pH 7, 37° C.): ~2%
drug degrading in aqueous solution ([1]; pH 8, 37° C.): ~1%
area under the plasma concentration curve (AUC) (30 mg once a day): 1934 ng·h/mL
area under the plasma concentration curve (AUC) (60 mg once a day): 4743 ng·h/mL
area under the plasma concentration curve (AUC) (60 mg three times a day): 14083 ng·h/mL
area under the plasma concentration curve (AUC) (60 mg twice a day): 8508 ng·h/mL
Compound: Cc1c(OCC(F)(F)F)ccnc1C[S+]([O-])c1nc2ccccc2[nH]1 (stereo not drawn) [lansoprazole]
formation of experimentally induced colitis [2]: inhibits the formation of experimentally induced-induced colitis
